# Data from patent publication US5811441A, “Isoxazoline fibrinogen receptor antagonists” (The DuPont Merck Pharmaceutical Company, priority 1997, dated 1998).
# Where a name gives a salt, the structure may show the parent alone.
# System: platelet aggregation (platelet rich plasma (PRP))
# Assay: Platelet Aggregation Assay (no esterase), platelet rich plasma
# Format: cell-based
# Conditions: human platelet rich plasma (PRP), concentration inhibiting platelet aggregation by 50% relative to control
# Procedure: Platelet Aggregation Assay:
# venous blood was obtained from the arm of a healthy human donor who was drug-free and aspirin-free for at least two weeks prior to blood collection. Blood was collected into 10 mL citrated Vacutainer tubes. The blood was centrifuged for 15 minutes at 150×g at room temperature, and platelet-rich plasma (PRP) was removed. The remaining blood was centrifuged for 15 minutes at 1500×g at room temperature, and platelet-poor plasma (PPP) was removed. Samples were assayed on a aggregometer (PAP-4 Platelet Aggregation Profiler), using PPP as the blank (100% transmittance). […] of PRP was added to each micro test tube, and transmittance was set to 0%. 20 μL of various agonists (ADP, collagen, arachidonate, epinephrine, thrombin) were added to each tube, and the aggregation profiles were plotted (% transmittance versus time). The results are expressed as % inhibition of agonist-induced platelet aggregation. For the IC50 evaluation, the test compounds were added at various concentrations prior to the activation of the platelets.
# Table A below sets forth the antiplatelet activity of representative compounds of the present invention. The indicated compounds were tested for their ability to inhibit platelet aggregation (using platelet rich plasma (PRP)). The IC50 value (the concentration of antagonist which inhibits platelet aggregation by 50% relative to a control lacking the antagonist) is shown. In Table A the IC50 values are expressed as: +++=IC50 of <1 μM; ++=IC50 of 1-50 μM; +=IC50 of 50-100 μM (μM=micromolar).
row,Structure (SMILES),IC50 [µM]
1,"Cc1noc(C)c1S(=O)(=O)N[C@@H](CNC(=O)C[C@@H]1CC(c2ccc(C(=N)N)cc2)=NO1)C(=O)O [N^2-(3,5-Dimethylisoxazole-4-sulfonyl)-N^3-[3-(4-amidinophenyl)isoxazolin-5(S)-ylacetyl]-(S)-2,3-diamino-propionate Trifluoroacetate Salt]",< 1
2,"Cc1noc(C)c1S(=O)(=O)N[C@@H](CNC(=O)C[C@H]1CC(c2ccc(C(=N)N)cc2)=NO1)C(=O)O [N^2-(3,5-dimethylisoxazole-4-sulfonyl)-N^3-[3-(4-amidinophenyl)isoxazolin-5(R)-ylacetyl]-(S)-2,3-diaminopropionate Trifluoroacetate Salt]",< 1
3,"Cc1noc(C)c1S(=O)(=O)N[C@@H](CNC(=O)CC1CC(c2ccc(C(=N)N)cc2)=NO1)C(=O)O (stereo partly drawn) [N^2-(3,5-dimethylisoxazole-4-sulfonyl)-N^3-[3-(4-amidinophenyl)isoxazolin-5(R,S)-ylacetyl]-(S)-2,3-diaminopropionateTrifluoroacetate Salt]",< 1
